The subject of data set [1] is SHP-77 cells. Briefly: Cell binding (total uptake) of [177Lu]Lu-labeled peptide, SHP-77 cells. Format: cell-based. The following applies: 1 h, 37° C. Here is the method:
(§1) [^177Lu]LuCl3 was received from venders in HCl solution. For every mCi of [^177Lu]LuCl3 added to the reaction vial (1.5 mL Eppendorf vial), ammonium acetate buffer (0.2 M, pH 4.9, 100 μL, containing 1% w/v ascorbic acid and 6% v/v ethanol) and peptide conjugate (1 nmol; also referred to herein as “chelator-peptides”) was added. The pH of the solution was determined to be approximately 5 by using pH strips. The reaction vial was incubated at 80° C., 700 RPM for 17-20 minutes. A sample from the reaction was analyzed by RP-HPLC using an Agilent Infinity II 1260 HPLC to determine reaction completion and radiochemical purity of [^177Lu]Lu-chelator-peptides. HPLC conditions: Waters XBridge BEH C18 Column, 130A, 3.5 μm, 4.6 mm×250 mm; mobile phase: Solvent A=water (with 0.1% formic acid), solvent B=acetonitrile (with 0.1% formic acid). Gradients: 25-45% B in 10 minutes, 45-65% B in 12 minutes, 65-90% in 6 minutes at a flow rate of 0.5 mL/minutes Required amounts of the product was formulated in 1% PBSA for cell studies.
(§2) The study was conducted using SHP-77, CT26.WT, CT26.DLL3, and HEK293.DLL3 cells (Table 9)
(§3) Adherent cell studies: The cells were cultured in appropriate culture media (20 mL) in tissue culture treated T150 flasks at 37° C. and 5% C02. Adherent cells were detached (60-70% confluent) using 5 mL Versene at 37° C. for 3 minutes. After confirming the viability using countess and count of detached cells using Trypan blue, the cells were centrifuged at 4° C. for 5 minutes (1,000 rpm). The cell pellet obtained was washed once with PBS and resuspended in 1% PBSA to obtain the desired cell concentration (5-25 million cells/mL).
(§4) Suspension cell studies: The cells were cultured in appropriate culture media (20 mL) in tissue culture treated T150 flasks at 37° C. and 5% CO2. After confirming the viability and count of detached cells using Trypan blue, the cells were centrifuged at 4° C. for 5 minutes (1,000 rpm). The cell pellet obtained was washed once with PBS and resuspended in 1% PBSA to obtain the desired cell concentration (5-25 million cells/mL).
(§5) Cell numbers used for the assay were in the range of 5 million cells/condition-25 million cells/condition.
(§6) Total uptake: Cells were incubated with 300 μL (0.8 μCi) of the incubation buffer (containing radiolabeled peptide [^177Lu]Lu-test peptide) for 1 hour at 37° C. (Table 10). Post incubation, the cells were pelleted and washed 2 times using cold PBS+1% BSA. The supernatant and washes were combined and counted together as “unbound fraction” in a gamma counter. The cells were then resuspended in 300 μL of 1% PBS+1% BSA and counted in the gamma counter as “bound fraction”.
(§7) In these Tables, “A” represents % s ≤25; “B” represents 25 <% ≤50; “C” represents % >50.

In data set [2] the test system is SHP-77 cells. Briefly: Internalization of [177Lu]Lu-labeled peptide, SHP-77 cells. The following applies: 1 h, 37° C. Format: cell-based. The protocol: as §1, §2, §3, §4, §5
(§8) Internalization: The resuspended cells in 300 μL of 1% PBSA and counted in the gamma counter as “bound fraction” were collected in 1.5 mL Eppendorf tube and pelleted. The pelleted cells were incubated with 300 μL of 50 mM Glycine pH=2.5 for 3 minutes and then pelleted discarding the supernatant. This process was repeated one more time. The pelleted cells were washed with 300 μL of cold 1% PBSA and then resuspended in 300 μl 0.3M NaOH. This was counted in the gamma counter as “internalized fraction”.
as §7

For data set [3], the system named is nude mice bearing SHP-77 tumors. Briefly: Ex vivo biodistribution of radiolabeled peptides (% IA/g) in nude mice bearing SHP-77 tumors. The following applies: [177Lu]Lu labelling, 24 hours post-injection, intravenous. The protocol: Mice were intravenously injected (via the lateral tail vein) with a bolus dose of the radiolabeled peptides for ex vivo biodistribution studies when tumor volumes were in range of 200-400 mm^3 for xenograft mice and when age of the mice was 5-7 weeks for tumor naïve mice studies. To assess the amount of radionuclide injected into individual mice the syringe was assayed in a dose calibrator before and after injection for [^177Lu]Lu-peptide, then the injected dose was determined from the weight difference and concentration of the radionuclide solution.
Mice were euthanized at pre-determined time points and selected tissues were resected and collected into pre-weighed tubes. The tubes were then reweighed post resection, the difference giving the weight of each tissue. Radioactivity in each tissue was measured using a gamma counter. Counts were decay corrected to the time of injection and percentage of injected activity per gram (% IA/g) was calculated for each tissue based on the injected activity into each individual mouse. Injected activity was converted to counts based on the sensitivity of the gamma counter. The counts in tissue were then converted to the percentage of injected activity and this was divided by the mass of tissue to give % IA/g.

The target of the next data set is T1, DLL3 (Homo sapiens, UniProt Q9NYJ7).
T1 sequence (Q9NYJ7 27-618): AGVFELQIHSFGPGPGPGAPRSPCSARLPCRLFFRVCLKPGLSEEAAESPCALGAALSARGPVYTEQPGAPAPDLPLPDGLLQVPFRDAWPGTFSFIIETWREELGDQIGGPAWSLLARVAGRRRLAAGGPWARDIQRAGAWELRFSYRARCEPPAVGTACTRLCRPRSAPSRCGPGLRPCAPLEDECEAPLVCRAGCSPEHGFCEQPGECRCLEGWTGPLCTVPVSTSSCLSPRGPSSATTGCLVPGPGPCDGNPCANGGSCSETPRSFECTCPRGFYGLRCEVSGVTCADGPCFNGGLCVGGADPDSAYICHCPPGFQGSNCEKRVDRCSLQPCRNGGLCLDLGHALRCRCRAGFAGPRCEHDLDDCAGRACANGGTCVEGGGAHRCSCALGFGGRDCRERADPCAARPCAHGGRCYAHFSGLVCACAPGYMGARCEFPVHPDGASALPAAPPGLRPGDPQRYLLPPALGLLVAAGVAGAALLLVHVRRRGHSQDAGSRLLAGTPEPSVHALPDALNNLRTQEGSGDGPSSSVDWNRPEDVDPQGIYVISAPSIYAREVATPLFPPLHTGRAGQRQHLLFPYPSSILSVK
Kind of data set: SPR KD, biotinylated human DLL3 on streptavidin chip (Table 8). More on the design: biotin (biotinylated). As to conditions: biotinylated human DLL3 on streptavidin sensor chip, 25° C., 1:1 binding model; read-out: SPR KD. An excerpt: Biotinylated target ligand human DLL3 was immobilized on a streptavidin sensor chip. A reference surface was set up for nonspecific binding and refractive index changes. […] Sensorgram curves were fitted with 1:1 binding model, and affinity and kinetic parameters were obtained using Biacore Insight evaluation 4.0. software.

For data set [4], the system named is CT26.DLL3 cells. Briefly: Cell binding (total uptake) of [177Lu]Lu-labeled peptide, CT26.DLL3 cells. Format: cell-based. As to conditions: 1 h, 37° C. The protocol: as §1, §2, §3, §5, §6, §7
Data set [5] deals with CT26.DLL3 cells. Kind of data set: Internalization of [177Lu]Lu-labeled peptide, CT26.DLL3 cells. Format: cell-based. As to conditions: 1 h, 37° C. Here is the method: as §1, §2, §3, §5, §8, §7

*1 amine or outer side, *2 acyl side, *3 side chain or, on linkers, in order; H or OH if unused. Where a SMILES comes first, the peptide text is derived from it. Bridges are numbered along the chain shown (N, C = ends). [ ]: non-standard residue; d: D form. The star is where a group is joined. ξ: configuration not given here. Ala(piperidin-4-yl) = O=C([C@H](CC1CCN([*:3])CC1)N[*:1])[*:2]; DOTA = O=C(O)CN1CCN(CC(=O)O)CCN(CC(=O)*)CCN(CC(=O)O)CC1; 2Nal = N[C@@H](Cc1ccc2ccccc2c1)C(=O)O; NMetBuAla = CN[C@@H](CC(C)(C)C)C(=O)O; Thr(3ξ) = CC(O)[C@H](N)C(=O)O; Chg = N[C@H](C(=O)O)C1CCCCC1; αMeP = C[C@@]1(C(=O)O)CCCN1; CH2 = C([*:1])[*:2]

As to `CC(=O)N[C@@H](Cc1c[nH]c2ccccc12)C(=O)N[C@H](C(=O)N(C)[C@@H](CC(C)(C)C)C(=O)N[C@H]1CSCSC[C@@H](C(=O)N[C@@H](Cc2c[nH]c3ccccc23)C(=O)N2CCC[C@@]2(C)C(N)=O)NC(=O)[C@H](CC(=O)O)NC(=O)[C@H](CCCCNC(=O)CN2CCN(CC(=O)O)CCN(CC(=O)O)CCN(CC(=O)O)CC2)NC(=O)[C@H](Cc2ccc3ccccc3c2)NC(=O)[C@H](CC(N)=O)NC(=O)[C@H](CC2CCNCC2)NC1=O)[C@@H](C)O` [compound 236, Ac-W-T-(NMe-tBuAla)-C(1)-[3-(4-piperidinyl)-Ala]-N-(2Nal)-Lys(DOTA)-D-C(1)-W-(aMe-P)-CONH2] (Ac-WT[NMetBuAla]C[Ala(piperidin-4-yl)]N[2Nal]K(DOTA)DCW[αMeP]-NH2; linker 4-10 via CH2), the “% Binding” value in the data set with SHP-77 cells [1] is given as “C (% >50)”. In addition, the “% Internalization (out of bound fraction)” value in the data set on SHP-77 cells [2] was “C (% >50)”. Besides, in data set [3], the “kidney uptake (% IA/g)” value is “C (“C” represents 0 < % IA/g ≤ 10 in)” and the “tumor uptake (% IA/g)” value is “B (“B” represents % IA/g > 5 in tumor)”. On DLL3, the Kd is under 1 nM.
Take `CC(=O)NCCCC[C@@H](NC(=O)[C@@H]1CCCN1C(=O)[C@H](Cc1c[nH]c2ccccc12)NC(=O)[C@@H]1CSCSC[C@H](NC(=O)[C@H](CC(C)(C)C)N(C)C(=O)[C@@H](NC(=O)[C@H](Cc2c[nH]c3ccccc23)NC(C)=O)C(C)O)C(=O)N[C@@H](CC2CCNCC2)C(=O)N[C@@H](CC(N)=O)C(=O)N[C@@H](Cc2ccc3ccccc3c2)C(=O)N[C@@H](CCCCNC(=O)CN2CCN(CC(=O)O)CCN(CC(=O)O)CCN(CC(=O)O)CC2)C(=O)N[C@@H](CC(=O)O)C(=O)N1)C(N)=O` (stereo partly drawn) [compound 445, Ac-W-T-(NMe-tBuAla)-C(1)-[3-(4-piperidinyl)-Ala]-N-(2Nal)-Lys(DOTA)-D-C(1)-W-P-[D-Lys(Ac)]-CONH2] (Ac-W[Thr(3ξ)][NMetBuAla]C[Ala(piperidin-4-yl)]N[2Nal]K(DOTA)DCWP[dK](Ac)-NH2; linker 4-10 via CH2): in the data set with SHP-77 cells [1], the “% Binding” value was “C (% >50)”. Moreover, the “% Internalization (out of bound fraction)” value in the data set with SHP-77 cells [2] is “C (% >50)”. Besides, in data set [3], the “kidney uptake (% IA/g)” value is given as “C (“C” represents 0 < % IA/g ≤ 10 in)” and the “tumor uptake (% IA/g)” value was “B (“B” represents % IA/g > 5 in tumor)”. Also, at DLL3, the Kd is under 1 nM.
As to `CC(=O)N[C@@H](Cc1c[nH]c2ccccc12)C(=O)N[C@H](C(=O)N[C@H](C(=O)N[C@H]1CSSC[C@@H](C(=O)N[C@@H](Cc2c[nH]c3ccccc23)C(=O)N2CCC[C@H]2C(N)=O)NC(=O)[C@H](CC(=O)O)NC(=O)[C@H](CCCCNC(=O)CN2CCN(CC(=O)O)CCN(CC(=O)O)CCN(CC(=O)O)CC2)NC(=O)[C@H](Cc2ccc3ccccc3c2)NC(=O)[C@H](CC(N)=O)NC(=O)[C@H](CC2CCNCC2)NC1=O)C1CCCCC1)[C@@H](C)O` [compound 324, Ac-W-T-(Chg)-C(3)-[3-(4-piperidinyl)-Ala]-N-(2Nal)-Lys(DOTA)-D-C(3)-W-P-CONH2] (Ac-WT[Chg]C[Ala(piperidin-4-yl)]N[2Nal]K(DOTA)DCWP-NH2; disulfide 4-10), the results for the “% Binding” value with CT26.DLL3 cells [4] and with SHP-77 cells [1] were “A (% s ≤25)” and “B (25 <% ≤50)”, respectively. Also, the entries for the “% Internalization (out of bound fraction)” value in the data set with CT26.DLL3 cells [5] and with SHP-77 cells [2] were “C (% >50)” and “B (25 <% ≤50)”, respectively. Moreover, the Kd on DLL3 was under 1 nM.

These data come from US20250049970A1, “DLL3 TARGETING PEPTIDES AND CONSTRUCTS THEREOF” (MARIANA ONCOLOGY INC., priority 2023, published 2025).
